Assays:
HT-29 cells [1] = settings: cultured HT-29 cells, colorectal cancer cell line; cited from earlier work
polyp formation = settings: in combination with a genetic reduction in DNA methyltransferase I activity; cited from earlier work
[2] = system: HT29 colorectal carcinoma cells; experiment: microarray differential expression in 5-aza-2-deoxycytidine-treated versus untreated HT29 cells; format: cell-based, human; settings: for D.E. (log2): 500 nM, treated vs untreated HT29 cells
Description: Incyte clones represent template sequences derived from the LIFESEQ GOLD assembled human sequence database (Incyte Genomics). In cases where more than one clone was available for a particular template, the 5′-most clone in the template was used on the microarray. The HUMAN GENOME GEM series 1-4 microarrays (Incyte Genomics) contain 37,715 array elements which represent 12,989 annotated clusters and 24,726 unannotated clusters.
To construct microarrays, cDNAs were amplified from bacterial cells using primers complementary to vector sequences flanking the cDNA insert. Thirty cycles of PCR increased the initial quantity of cDNAs from 1-2 ng to a final quantity greater than 5 μg. Amplified cDNAs were then purified using SEPHACRYL-400 columns (APB). Purified cDNAs were immobilized on polymer-coated glass slides. Glass microscope slides (Corning, Corning N.Y.) were cleaned by ultrasound in 0.1% SDS and acetone, with extensive distilled water washes between and after treatments. Glass slides were etched in 4% hydrofluoric acid (VWR Scientific Products, West Chester Pa.), washed thoroughly in distilled water, and coated with 0.05% aminopropyl silane (Sigma Aldrich) in 95% ethanol. Coated slides were cured in a 110° C. oven. cDNAs were applied to the coated glass substrate using a procedure described in U.S. Pat. No. 5,807,522. One microliter of the cDNA at an average concentration of 100 ng/μl was loaded into the open capillary printing element by a high-speed robotic apparatus which then deposited about 5 nl of cDNA per slide.
Microarrays were UV-crosslinked using a STRATALINKER UV-crosslinker (Stratagene), and then washed at room temperature once in 0.2% SDS and three times in distilled water. Non-specific binding sites were blocked by incubation of microarrays in 0.2% casein in phosphate buffered saline (Tropix, Bedford Mass.) for 30 minutes at 60° C. followed by washes in 0.2% SDS and distilled water as before.
HT29 cells were derived from a Grade II adenocarcinoma of the colon obtained from a person. HT29 adenocarcinoma cells (American Type Culture Collection, Manassas Va.) were cultured in McCoy's medium supplemented with 10% fetal bovine serum (Invitrogen) at 37° C. and 5% CO2. Treated cells were exposed to 500 nM 5-aza-2-deoxycytidine (Sigma-Aldrich) 24 hr after passage in complete culture medium. Control cultures were treated in parallel with phosphate buffered saline vehicle. After twenty-four hours, culture medium was replaced with drug-free medium. Control and 5-aza-2-deoxycytidine-treated cells were subcultured at equal densities at 1 and 5 days after the initial treatment, and proliferation was measured at the subsequent time point using a Coulter counter (Beckman Coulter, Fullerton Calif.). Cells were harvested 9 days after the initial treatment.
Cells were harvested and lysed in 1 ml of TRIZOL reagent (5×10^6 cells/ml; Invitrogen). The lysates were vortexed thoroughly and incubated at room temperature for 2-3 minutes and extracted with 0.5 ml chloroform. The extract was mixed, incubated at room temperature for 5 minutes, and centrifuged at 16,000×g for 15 minutes at 4° C. The aqueous layer was collected and an equal volume of isopropanol was added. Samples were mixed, incubated at room temperature for 10 minutes, and centrifuged at 16,000×g for 20 minutes at 4° C. The supernatant was removed and the RNA pellet was washed with 1 ml of 70% ethanol, centrifuged at 16,000×g at 4° C., and resuspended in RNAse-free water. The concentration of the RNA was determined by measuring the optical density at 260 nm.
Poly(A) RNA was prepared using an OLIGOTEX mRNA kit (Qiagen) with the following modifications: OLIGOTEX beads were washed in tubes instead of on spin columns, resuspended in elution buffer, and then loaded onto spin columns to recover mRNA. To obtain maximum yield, the mRNA was eluted twice. […]

HT-29 cells [3] = settings: inhibition parallels induction of IFN responsive genes; cited from earlier work
[4] = treated HT29 cells versus untreated cells

## Nc1ncn([C@H]2C[C@H](O)[C@@H](CO)O2)c(=O)n1 [5-aza-2-deoxycytidine]
HT-29 cells [1]
  gene expression after treatment: specific expression of several genes related to interferon (IFN) signaling
Polyp formation
  polyp formation: reduced polyp formation
[2]; SEQ ID NO 1, GAGE-8 [Homo sapiens], harvested 9 days after treatment
  D.E. (log2): 3.45 log2
[2]; SEQ ID NO 2, GAGE-7B [Homo sapiens]
  D.E. (log2): 2.51 log2
[2]; SEQ ID NO 3, p27 [Homo sapiens]
  D.E. (log2): 2.08 log2
[2]; SEQ ID NO 4, MAGE-6 antigen [Homo sapiens]
  D.E. (log2): 1.74 log2
[2]; SEQ ID NO 5, interferon-inducible protein [Homo sapiens]
  D.E. (log2): 1.62 log2
[2]; SEQ ID NO 6, MAGE-9 antigen [Homo sapiens]
  D.E. (log2): 1.57 log2
[2]; SEQ ID NO 7, interferon-inducible peptide precursor [Homo sapiens]
  D.E. (log2): 1.56 log2
[2]; SEQ ID NO 8, transcription factor ISGF-3 [Homo sapiens]
  D.E. (log2): 1.49 log2
[2]; SEQ ID NO 9, HLA Class I region, chromosome 6p21.3, section 6/20 [Homo sapiens]
  D.E. (log2): 1.40 log2
[2]; SEQ ID NO 10, hypothetical protein [Homo sapiens]
  D.E. (log2): 1.33 log2
[2]; SEQ ID NO 11, GAGE-8 protein [Homo sapiens]
  D.E. (log2): 2.67 log2
[2]; SEQ ID NO 12, putative tumor antigen [Homo sapiens]
  D.E. (log2): 2.57 log2
[2]; SEQ ID NO 13, semaphorin B [Mus musculus]
  D.E. (log2): 1.92 log2
[2]; SEQ ID NO 14, Incyte Unique, Template 213413.1
  D.E. (log2): 2.10 log2
[2]; SEQ ID NO 15, Incyte Unique, Template 032481.1
  D.E. (log2): 1.76 log2
[2]; SEQ ID NO 16, HLA Class I region, chromosome 6p21.3 [Homo sapiens]
  D.E. (log2): 1.67 log2
[2]; SEQ ID NO 17, proline rich synapse associated protein 1 [Rattus norvegicus]
  D.E. (log2): 1.66 log2
[2]; SEQ ID NO 18, hepatitis C-associated microtubular aggregate protein p44 [Homo sapiens]
  D.E. (log2): 1.53 log2
[2]; SEQ ID NO 19, S100P calcium-binding protein [Homo sapiens], negative = downregulation
  D.E. (log2): −1.34 log2
[2]; SEQ ID NO 20, G0S2 protein [Homo sapiens], negative = downregulation
  D.E. (log2): −1.41 log2
[2]; SEQ ID NO 21, progesterone-induced protein [Oryctolagus cuniculus], negative = downregulation
  D.E. (log2): −1.42 log2
[2]; SEQ ID NO 22, phosphoenolpyruvate carboxykinase [Homo sapiens], negative = downregulation
  D.E. (log2): −1.72 log2
[2]; SEQ ID NO 23, unnamed protein product [Homo sapiens], negative = downregulation
  D.E. (log2): −1.74 log2
[2]; SEQ ID NO 24, cystine/glutamate transporter [Homo sapiens], negative = downregulation
  D.E. (log2): −1.81 log2
[2]; SEQ ID NO 25, Incyte Unique, Template 200578.1, negative = downregulation
  D.E. (log2): −1.63 log2
[2]; treated HT29 cells relative to untreated HT29 cells, up- or downregulation
  differential expression values of each cDNA (SEQ ID NOs: 1-25): greater than 2.5 fold
[2]; [4]
  upregulation of SEQ ID NO: 1: > 5 fold
  upregulation of SEQ ID NO: 2: > 5 fold
  upregulation of SEQ ID NO: 4: > 3 fold
  upregulation of SEQ ID NO: 6: > 3 fold
  upregulation of SEQ ID NO: 11: > 5 fold
  upregulation of SEQ ID NO: 12: > 5 fold
HT-29 cells [3]
  growth of HT-29 cells in culture: inhibits growth
